pEC50: −log10 of the molar value.
Key:
[1] = system: enoxaparin (ENOX); experiment: FXa chromogenic assay (absence of plasma), enoxaparin; settings: enoxaparin 0.1 μg/mL, absence of plasma
[2] = system: fondaparinux (FONDAPX); experiment: FXa chromogenic assay (absence of plasma), fondaparinux; settings: fondaparinux 0.02 μg/mL, absence of plasma
[3] = system: Unfractionated heparin; experiment: aPTT clotting assay, UFH 0.4 U/mL in plasma (Example 10); assay type: biochemical; settings: unfractionated heparin 0.4 U/mL in plasma; aPTT clotting
Protocol: aPTT clotting Assay: Unfractionated heparin was mixed with plasma at a final concentration of 0.4 U/mL (or concentration which increases aPTT time to between 120 and 300 seconds). […] The ACL Elite Hemostasis analyzer (Beckman Coulter™) was used to add aPTT reagent (HemosIL SynthASil) to supplemented plasma. Clotting was initiated by addition of CaCl2 and time to clot was recorded.

[4] = system: enoxaparin; experiment: FXa amidolytic assay (Example 10), enoxaparin; settings: read-out: Enox FXa EC50; enoxaparin 0.1 ug/ml; human antithrombin, bovine Factor Xa
[5] = system: tinzaparin; experiment: FXa amidolytic assay (Example 10), tinzaparin; settings: read-out: Tinzap FXa EC50; tinzaparin 0.1 ug/ml; human antithrombin, bovine Factor Xa
[6] = system: fondaparinux; experiment: FXa amidolytic assay (Example 10), fondaparinux; settings: read-out: Fondap FXa EC50; fondaparinux 0.02 μg/mL; human antithrombin, bovine Factor Xa

Row | ENOX (FXa) EC50 [1] [µg/mL] | FONDAPX (FXa) EC50 [2] | pEC50 [3] | pEC50 [4] | pEC50 [5] | pEC50 [6] | Structure (SMILES)
1 | 45.00 | inactive | – | – | – | – | COc1ccc(NC(=O)[C@@H](CCCCN)NC(=O)c2c(OC)ccc(NC(=O)[C@@H](CCCCN)NC(=O)c3c(OC)ccc(NC(=O)[C@@H](CCCCN)NC(=O)c4c(OC)ccc(NC(=O)[C@H](N)CCCCN)c4OC)c3OC)c2OC)c(OC)c1C(N)=O [Compound 36]
2 | 0.72 | – | – | – | – | – | N=C(N)NCCC[C@@H](N)C(=O)Nc1ccc(OCCNC(=N)N)c(C(=O)N[C@H](CCCNC(=N)N)C(=O)Nc2ccc(OCCNC(=N)N)c(C(=O)N[C@H](CCCNC(=N)N)C(=O)Nc3ccc(OCCNC(=N)N)c(C(=O)N[C@H](CCCNC(=N)N)C(=O)Nc4ccc(OCCNC(=N)N)c(C(N)=O)c4)c3)c2)c1 [Compound 31]
3 | 1.43 | – | – | – | – | – | COc1ccc(NC(=O)[C@H](N)CCCNC(=N)N)cc1C(=O)N[C@H](CCCNC(=N)N)C(=O)Nc1ccc(OC)c(C(=O)N[C@H](CCCNC(=N)N)C(=O)Nc2ccc(OCCNC(=N)N)c(C(=O)N[C@H](CCCNC(=N)N)C(=O)Nc3ccc(OCCNC(=N)N)c(C(N)=O)c3)c2)c1 [Compound 10]
4 | 4.30 | inactive | – | – | – | – | COc1ccc(NC(=O)[C@@H](CCCNC(N)=O)NC(=O)c2cc(NC(=O)[C@@H](CCCNC(N)=O)NC(=O)c3cc(NC(=O)[C@@H](CCCNC(N)=O)NC(=O)c4cc(NC(=O)[C@H](N)CCCNC(N)=O)ccc4OC)ccc3OC)ccc2OC)cc1C(N)=O [Compound 33]
5 | 0.11 | 2.99 µg/mL | – | – | – | – | COc1ccc(NC(=O)[C@@H](CCCNC(=N)N)NC(=O)c2cc(NC(=O)[C@@H](CCCNC(=N)N)NC(=O)c3cc(NC(=O)[C@@H](CCCNC(=N)N)NC(=O)c4cc(NC(=O)[C@@H](C)NC(=O)CCCCNC(=N)N)ccc4OC)ccc3OC)ccc2OC)cc1C(=O)NCCCCCN [Compound 61]
6 | 0.56 | 7.63 µg/mL | – | – | – | – | COc1ccc(NC(=O)[C@@H](CCCNC(=N)N)NC(=O)c2cc(NC(=O)[C@@H](CCCNC(=N)N)NC(=O)c3cccc(NC(=O)[C@@H](CCCNC(=N)N)NC(=O)c4cccc(NC(=O)[C@H](N)CCCNC(=N)N)c4)c3)ccc2OC)cc1C(N)=O [Compound 22]
7 | 45.00 | inactive | – | – | – | – | COc1ccc(NC(=O)[C@@H](CCCCN)NC(=O)c2cc(NC(=O)[C@H](CCCCN)NC(=O)c3cc(NC(=O)[C@@H](CCCCN)NC(=O)c4cc(NC(=O)[C@@H](N)CCCCN)ccc4OC)ccc3OC)ccc2OC)cc1C(N)=O [Compound 37]
8 | 16.70 | – | – | – | – | – | COc1ccc(NC(=O)[C@H](CCCN)NC(=O)c2cc(NC(=O)[C@H](CCCN)NC(=O)c3cc(NC(=O)[C@H](CCCN)NC(=O)c4cc(NC(=O)[C@@H](N)CCCN)ccc4OC)ccc3OC)ccc2OC)cc1C(N)=O [Compound 89]
9 | 0.21 | 2.66 µg/mL | – | – | – | – | COc1ccc(NC(=O)[C@@H](CCCNC(=N)N)NC(=O)c2cc(NC(=O)[C@@H](CCCNC(=N)N)NC(=O)c3cc(NC(=O)[C@@H](CCCNC(=N)N)NC(=O)c4cc(NC(=O)[C@@H](C)NC(C)=O)ccc4OC)ccc3OC)ccc2OC)cc1C(=O)NCCCCCN [Compound 60]
10 | 3.68 | 18.01 µg/mL | – | – | – | – | N=C(N)NCCC[C@@H](N)C(=O)Nc1ccc(F)c(C(=O)N[C@H](CCCNC(=N)N)C(=O)Nc2ccc(F)c(C(=O)N[C@H](CCCNC(=N)N)C(=O)Nc3ccc(F)c(C(=O)N[C@H](CCCNC(=N)N)C(=O)Nc4ccc(F)c(C(N)=O)c4)c3)c2)c1 [Compound 23]
11 | 0.22 | 5.92 µg/mL | – | – | – | – | COc1ccc(NC(=O)[C@@H](CCCNC(=N)N)NC(=O)c2cc(NC(=O)[C@@H](CCCNC(=N)N)NC(=O)c3cc(NC(=O)[C@@H](CCCNC(=N)N)NC(=O)c4cc(NC(=O)[C@@H](C)N)ccc4OC)ccc3OC)ccc2OC)cc1C(=O)NCCN [Compound 54]
12 | 0.88 | 6.72 µg/mL | – | – | – | – | COc1ccc(NC(=O)[C@@H](C)NC(=O)c2cc(NC(=O)[C@@H](CCCNC(=N)N)NC(=O)c3cc(NC(=O)[C@@H](CCCNC(=N)N)NC(=O)c4cc(NC(=O)[C@H](N)CCCNC(=N)N)ccc4OC)ccc3OC)ccc2OC)cc1C(N)=O [Compound 13]
13 | 0.15 | 4.26 µg/mL | – | – | – | – | COc1ccc(NC(=O)[C@@H](CCCNC(=N)N)NC(=O)c2cc(NC(=O)[C@@H](CCCNC(=N)N)NC(=O)c3cc(NC(=O)[C@@H](CCCNC(=N)N)NC(=O)c4cc(NC(=O)[C@H](N)CCCNC(=N)N)ccc4OC)ccc3OC)ccc2OC)cc1C(=O)NCCN [Compound 51]
14 | 0.97 | 10.36 µg/mL | – | – | – | – | COc1ccc(NC(=O)[C@@H](CCCNC(=N)N)NC(=O)c2cc(NC(=O)[C@@H](CCCNC(=N)N)NC(=O)c3cc(NC(=O)[C@@H](CCCNC(=N)N)NC(=O)c4cc(NC(=O)[C@H](N)CCCNC(=N)N)ccc4F)ccc3F)ccc2OC)cc1C(N)=O [Compound 25]
15 | 0.10 | 3.29 µg/mL | – | – | – | – | COc1ccc(NC(=O)[C@@H](CCCNC(=N)N)NC(=O)c2cc(NC(=O)[C@@H](CCCNC(=N)N)NC(=O)c3cc(NC(=O)[C@@H](CCCNC(=N)N)NC(=O)c4cc(NC(=O)[C@@H](C)NC(=O)CCN)ccc4OC)ccc3OC)ccc2OC)cc1C(=O)NCCCCCN [Compound 63]
16 | 0.13 | 4.53 µg/mL | – | – | – | – | COc1ccc(NC(=O)[C@@H](CCCNC(=N)N)NC(=O)c2cc(NC(=O)[C@@H](CCCNC(=N)N)NC(=O)c3cc(NC(=O)[C@@H](CCCNC(=N)N)NC(=O)c4cc(NC(=O)[C@@H](C)NC(=O)CCN)ccc4OC)ccc3OC)ccc2OC)cc1C(=O)NCCN [Compound 59]
17 | 0.36 | 4.26 µg/mL | – | – | – | – | COc1ccc(NC(=O)[C@@H](CCCCNC(=N)N)NC(=O)c2cc(NC(=O)[C@@H](CCCCNC(=N)N)NC(=O)c3cc(NC(=O)[C@@H](CCCCNC(=N)N)NC(=O)c4cc(NC(=O)[C@H](N)CCCCNC(=N)N)ccc4OC)ccc3OC)ccc2OC)cc1C(N)=O [Compound 12]
18 | 0.36 | 1.93 µg/mL | – | – | – | – | COc1ccc(NC(=O)[C@@H](CCCNC(=N)N)NC(=O)c2cc(NC(=O)[C@@H](CCCNC(=N)N)NC(=O)c3cc(NC(=O)[C@@H](Cc4c[nH]c5ccccc45)NC(=O)c4cc(NC(=O)[C@H](N)CCCNC(=N)N)ccc4OC)ccc3OC)ccc2OC)cc1C(N)=O [Compound 85]
19 | 0.65 | 8.84 µg/mL | – | – | – | – | COc1ccc(NC(=O)[C@@H](CCCNC(=N)N)NC(=O)c2cccc(NC(=O)[C@H](N)CCCNC(=N)N)c2)cc1C(=O)N[C@H](CCCNC(=N)N)C(=O)Nc1ccc(OC)c(C(=O)N[C@H](CCCNC(=N)N)C(=O)Nc2cccc(C(N)=O)c2)c1 [Compound 21]
20 | 0.78 | 8.33 µg/mL | – | – | – | – | COc1ccc(NC(=O)C(CCCCN)NC(=O)c2cc(NC(=O)C(CCCCN)NC(=O)c3cc(NC(=O)C(CCCCN)NC(=O)c4cc(NC(=O)C(CCCCN)NC(=N)N)ccc4OC)ccc3OC)ccc2OC)cc1C(N)=O (stereo not shown) [Compound 29]
21 | 30.00 | inactive | – | – | – | – | COc1ccc(NC(=O)[C@@H](CCCCN)NC(=O)c2cc(NC(=O)[C@@H](CCCNC(=N)N)NC(=O)c3cc(NC(=O)[C@@H](CCCCN)NC(=O)c4cc(NC(=O)[C@H](N)CCCCN)ccc4OC)ccc3OC)ccc2OC)cc1C(N)=O [Compound 32]
22 | 0.57 | – | – | – | – | – | COc1ccc(NC(=O)[C@H](N)CCCNC(=N)N)cc1C(=O)N[C@H](CCCNC(=N)N)C(=O)Nc1ccc(OC)c(C(=O)N[C@H](CCCNC(=N)N)C(=O)Nc2ccc(OC)c(C(=O)N[C@H](CCCNC(=N)N)C(=O)Nc3ccc(OCCNC(=N)N)c(C(N)=O)c3)c2)c1 [Compound 18]
23 | 0.36 | 3.94 µg/mL | – | – | – | – | COc1ccc(NC(=O)[C@@H](CCCNC(=N)N)NC(=O)c2cc(NC(=O)[C@@H](CCCNC(=N)N)NC(=O)c3cc(NC(=O)[C@@H](CCCNC(=N)N)NC(=O)c4cc(NC(=O)[C@@H](C)NC(=O)CCCCN)ccc4OC)ccc3OC)ccc2OC)cc1C(=O)NCCN [Compound 58]
24 | – | – | 5.53 | 6.11 | 6.36 | 5.42 | COc1ccc(NC(=O)[C@H](CCCNC(=N)N)NC(=O)c2cc(NC(=O)[C@H](CCC(=O)O)NC(=O)c3cc(NC(=O)[C@H](CCCNC(=N)N)NC(=O)c4cc(NC(=O)[C@@H](N)CCCNC(=N)N)ccc4OC)ccc3OC)ccc2OC)cc1C(N)=O [Compound 324]
25 | – | – | < 5.00 | < 5.30 | < 5.30 | < 5.00 | COc1cc(OC)c(C(=O)N[C@H]2CC[C@@H](NC(=O)c3cc(C(=O)N4CCC(CN)CC4)c(OC)cc3OC)CC2)cc1C(=O)N[C@H]1CC[C@@H](N=C(N(C)C)N(C)C)CC1 [Compound 416]
26 | – | – | 5.65 | 6.31 | 6.70 | 5.96 | COc1cc(OC)c(C(=O)N[C@H]2CC[C@@H](NC(=O)c3cc(C(=O)N[C@H]4CC[C@@H](NC(=O)c5cc(C(=O)NC6CCNCC6)c(OC)cc5OC)CC4)c(OC)cc3OC)CC2)cc1C(=O)NC1CCNCC1 [Compound 417]
27 | – | – | 5.70 | 6.54 | 6.63 | 6.26 | COc1ccc(NC(=O)[C@H](CCCNC(=N)N)NC(=O)c2cc(NC(=O)[C@H](CCCNC(=N)N)NC(=O)c3cc(NC(=O)[C@H](CCCNC(=N)N)NC(=O)c4cc(NC(=O)[C@@H](N)CCC(=O)O)ccc4OC)ccc3OC)ccc2OC)cc1C(N)=O [Compound 326]

From patent US20110178104A1, “Anti-Heparin Compounds” (POLYMEDIX INC., priority 2010, published 2011)
